Assay results as given in patent US20060004197A1, “Sulfonamide-based compounds as protein tyrosine kinase inhibitors” (priority 2004, published 2006).

These compounds were tested against T1, Recombinant human Src (Homo sapiens, UniProt P12931) (assay: Src tyrosine kinase activity, poly E4Y / 32P-ATP phosphorylation assay). Conditions: Table 2, Formula I compounds; NI = no inhibition at 100 μg/mL.
T1 construct: made in house; host or cells: baculovirus-insect cell system
Assay type: biochemical
Method: Recombinant human Src was expressed using the baculovirus-insect cell system and purified as published (Budde et al., 1993 and 2000).
The tyrosine kinase activity of Src, Csk and FGFr was determined using poly E4Y and ^32P-ATP. Briefly, enzymes were assayed in a reaction mixture consisting of 0.15 M EPPS-NaOH (pH 8.0) with 6 mM MgCl2, 0.2 mM γ^32P-ATP (0.2-0.4 mCi/μmol), 10% glycerol, 0.1% Triton X-100, and poly E4Y. Poly E4Y is a synthetic peptide whose phosphorylation is measured in this assay by the addition of the radioactively labeled phosphate from the ATP (Budde et al., 1995). […] When ATP was varied (0, 50, 100 and 250 μM), poly E4Y was kept constant at 150 μg/ml.

T1 sequence (P12931 whole entry): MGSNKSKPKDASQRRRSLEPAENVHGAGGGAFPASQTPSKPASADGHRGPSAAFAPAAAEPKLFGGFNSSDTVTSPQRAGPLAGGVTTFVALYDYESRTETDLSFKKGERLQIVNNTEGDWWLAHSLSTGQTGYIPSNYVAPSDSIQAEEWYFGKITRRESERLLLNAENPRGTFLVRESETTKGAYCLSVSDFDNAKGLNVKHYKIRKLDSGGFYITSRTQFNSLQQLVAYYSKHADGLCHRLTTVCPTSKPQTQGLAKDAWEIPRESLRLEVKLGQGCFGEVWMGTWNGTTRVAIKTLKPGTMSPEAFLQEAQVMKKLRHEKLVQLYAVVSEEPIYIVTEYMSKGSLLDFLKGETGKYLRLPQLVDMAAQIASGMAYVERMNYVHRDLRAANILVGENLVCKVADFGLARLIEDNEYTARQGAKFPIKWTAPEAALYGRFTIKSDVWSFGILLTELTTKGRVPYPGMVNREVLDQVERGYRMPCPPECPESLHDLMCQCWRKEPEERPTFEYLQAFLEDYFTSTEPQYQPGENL

Point of comparison: `Cc1ccc(S(=O)(=O)Nc2cc(NCc3ccccc3Cl)c([N+](=O)[O-])cc2NS(=O)(=O)c2ccc(C)cc2)cc1` [Compound 9g, N-[4-(2-chloro-benzylamino)-5-nitro-2-(4-toluenesulfonylamino)-phenyl]-4-toluenesulfonamide], IC50 54 µM. Against it:
- Cc1ccc(S(=O)(=O)Nc2cc(NCc3cccnc3)c([N+](=O)[O-])cc2NS(=O)(=O)c2ccc(C)cc2)cc1 [Compound 9d, N-[5-nitro-4-[(pyridin-3-ylmethyl)-amino]-2-(4-toluenesulfonylamino)-phenyl]-4-toluenesulfonamide] — higher, > 176 µM

Same assay, conditions: Table 2; compound at 15 ug/mL; read-out: % Inhibition at 15 ug/mL Src (%)

Point of comparison: `COc1ccc(CNc2cc(NS(=O)(=O)c3ccc(C)cc3)c(NS(=O)(=O)c3ccc(C)cc3)cc2[N+](=O)[O-])cc1` [Compound 9f, N-[4-(4-methoxy-benzylamino)-5-nitro-2-(4-toluenesulfonylamino)-phenyl]-4-toluenesulfonamide], inhibition at 15 µg/mL 17%. Against it:
- Cc1ccc(S(=O)(=O)Nc2cc(N3CCN(C)CC3)c([N+](=O)[O-])cc2NS(=O)(=O)c2ccc(C)cc2)cc1 [Compound 9b, N-[4-(4-methyl-piperazin-1-yl)-5-nitro-2-(4-toluenesulfonylamino)-phenyl]-4-toluenesulfonamide] — lower, 2%
- Cc1ccc(S(=O)(=O)Nc2cc(N3CCSCC3)c([N+](=O)[O-])cc2NS(=O)(=O)c2ccc(C)cc2)cc1 [Compound 9c, N-[5-nitro-4-(thiomorpholin-4-yl)-2-(4-toluenesulfonylamino)-phenyl]-4-toluenesulfonamide] — lower, 15%
- Cc1ccc(S(=O)(=O)Nc2cc(NCc3ccccn3)c([N+](=O)[O-])cc2NS(=O)(=O)c2ccc(C)cc2)cc1 [Compound 9e, N-[5-nitro-4-[(pyridin-2-ylmethyl)-amino]-2-(4-toluenesulfonylamino)-phenyl]-4-toluenesulfonamide] — lower, 15%
- Cc1ccc(S(=O)(=O)Nc2cc(NCc3ccccc3Cl)c([N+](=O)[O-])cc2NS(=O)(=O)c2ccc(C)cc2)cc1 [Compound 9g, N-[4-(2-chloro-benzylamino)-5-nitro-2-(4-toluenesulfonylamino)-phenyl]-4-toluenesulfonamide] — higher, 65%
- Cc1ccc(S(=O)(=O)Nc2cc(NCC3CCCCC3)c([N+](=O)[O-])cc2NS(=O)(=O)c2ccc(C)cc2)cc1 [Compound 9h, N-[4-(cyclohexylmethyl-amino)-5-nitro-2-(4-toluenesulfonylamino)-phenyl]-4-toluenesulfonamide] — higher, 22%
- Cc1ccc(S(=O)(=O)Nc2cc(NCC3(O)CCCCC3)c([N+](=O)[O-])cc2NS(=O)(=O)c2ccc(C)cc2)cc1 [Compound 9i, N-[4-(1-hydroxy-cyclohexylmethyl-amino)-5-nitro-2-(4-toluenesulfonylamino)-phenyl]-4-toluenesulfonamide] — higher, 18%
- Cc1ccc(S(=O)(=O)Nc2cc(NC3CCCCC3)c([N+](=O)[O-])cc2NS(=O)(=O)c2ccc(C)cc2)cc1 [Compound 9j, N-[4-cyclohexylamino-5-nitro-2-(4-toluenesulfonylamino)-phenyl]-4-toluenesulfonamide] — lower, 4%
- Cc1ccc(S(=O)(=O)Nc2cc(NCCCc3cn[nH]c3C)c([N+](=O)[O-])cc2NS(=O)(=O)c2ccc(C)cc2)cc1 [Compound 9k, N-[4-[3-(5-methyl-1H-pyrazol-4-yl)-propylamino]-5-nitro-2-(4-toluenesulfonylamino)-phenyl]-4-toluenesulfonamide] — lower, 13%

Same assay, conditions: Table 2; compound at 50 μg/mL (starred values); read-out: % Inhibition Src (%), * = assayed at 50 μg/mL

Point of comparison: `Cc1ccc(S(=O)(=O)Nc2cc(N3CCOCC3)c([N+](=O)[O-])cc2NS(=O)(=O)c2ccc(C)cc2)cc1` [Compound 9a, N-[4-(morpholin-4-yl)-5-nitro-2-(4-toluenesulfonylamino)-phenyl]-4-toluenesulfonamide], inhibition at 50 µg/mL 13%. Against it:
- Cc1ccc(S(=O)(=O)Nc2cc(NCc3cccnc3)c([N+](=O)[O-])cc2NS(=O)(=O)c2ccc(C)cc2)cc1 [Compound 9d, N-[5-nitro-4-[(pyridin-3-ylmethyl)-amino]-2-(4-toluenesulfonylamino)-phenyl]-4-toluenesulfonamide] — higher, 19%

Same assay, conditions: Table 3, Formula II compounds; NI = no inhibition at 100 μg/mL

Point of comparison: `CC(=O)OCCCCCOc1ccc(NS(=O)(=O)c2ccc(C)cc2)c(NS(=O)(=O)c2ccc(C)cc2)c1` [Compound 12ee, 5-[3,4-bis-(4-toluenesulfonylamino)-phenoxy]-pentyl acetate], IC50 131 µM. Against it:
- C=CCc1c(OCc2ccc(OC)cc2)ccc(NS(=O)(=O)c2ccc(C)cc2)c1NS(=O)(=O)c1ccc(C)cc1 [Compound 15a, N-[3-allyl-4-(4-methoxy-benzyloxy)-2-(4-toluenesulfonylamino)-phenyl]-4-toluenesulfonamide] — 1.6-fold higher, 212 µM
- COc1ccc(Oc2ccc(NS(=O)(=O)c3cccc(OC)c3)c(NS(=O)(=O)c3ccc(C)cc3)c2)cc1 [Compound 22aa, 3-methoxy-N-[4-(4-methoxy-phenoxy)-2-(4-toluenesulfonylamino)-phenyl]-benzenesulfonamide] — within 1.5-fold, 133 µM
- COc1ccc(Oc2ccc(NS(=O)(=O)c3ccc(Br)s3)c(NS(=O)(=O)c3ccc(C)cc3)c2)cc1 [Compound 22bb, N-[4-(4-methoxy-phenoxy)-2-(4-toluenesulfonylamino)-phenyl]-5-bromo-thiophene-2-sulfonamide] — 6.7-fold lower, 19.5 µM
- Cc1ccc(S(=O)(=O)Nc2ccc(C(=O)NC(C)(C)C)cc2NS(=O)(=O)c2ccc(C)cc2)cc1 [Compound 22c, N-t-butyl-3,4-bis-(4-toluenesulfonylamino)-benzamide] — 2.3-fold higher, 300 µM
- COc1ccc(Oc2ccc(NS(=O)(=O)c3cccc4cnccc34)c(NS(=O)(=O)c3ccc(C)cc3)c2)cc1 [Compound 22cc, N-[4-(4-methoxy-phenoxy)-2-(4-toluenesulfonylamino)-phenyl]-isoquinoline-5-sulfonamide] — 2.9-fold lower, 45 µM
- Cc1ccc(S(=O)(=O)Nc2ccc(C(=O)Nc3ccccc3)cc2NS(=O)(=O)c2ccc(C)cc2)cc1 [Compound 22e, N-phenyl-3,4-bis-(4-toluenesulfonylamino)-benzamide] — within 1.5-fold, 149 µM
- COc1ccc(Oc2ccc(NS(=O)(=O)c3ccc(C)cc3)c(NS(=O)(=O)CCc3cccc4ccccc34)c2)cc1 [Compound 22ee, N-[4-(4-methoxy-phenoxy)-2-(2-naphthalen-1-yl-ethanesulfonylamino)-phenyl]-4-toluenesulfonamide] — 2.6-fold lower, 50 µM
- Cc1ccc(S(=O)(=O)Nc2ccc(C(=O)NCc3cccc4ccccc34)cc2NS(=O)(=O)c2ccc(C)cc2)cc1 [Compound 22g, N-naphthalen-1-ylmethyl-3,4-bis-(4-toluenesulfonylamino)-benzamide] — 7.3-fold lower, 18 µM
- COc1ccc(Oc2ccc(NS(=O)(=O)c3ccc(C)cc3)c(NS(=O)(=O)c3ccc(Br)s3)c2)cc1 [Compound 22gg, 5-bromo-N-[5-(4-methoxy-phenoxy)-2-(4-toluenesulfonylamino)-phenyl]-thiophene-2-sulfonamide] — 5.5-fold lower, 24 µM
- Cc1ccc(S(=O)(=O)Nc2ccc(NC(=O)Cc3ccccc3)cc2NS(=O)(=O)c2ccc(C)cc2)cc1 [Compound 22h, 2-phenyl-N-[3,4-bis-(4-toluenesulfonylamino)-phenyl]-acetamide] — 2.8-fold lower, 47 µM

Same assay, conditions: Table 3; compound at 15 μg/mL; read-out: % Inhibition at 15 μg/mL Src (%)

Point of comparison: `COC(=O)c1c(S(=O)(=O)Nc2cc(Oc3ccc(OC)cc3)ccc2NS(=O)(=O)c2ccc(C)cc2)c(C)n(C)c1C` [Compound 22dd, methyl 4-[5-(4-methoxy-phenoxy)-2-(4-toluenesulfonylamino)-phenylsulfamoyl]-1,2,5-trimethyl-1H-pyrrole-3-carboxylate], inhibition at 15 µg/mL 5%. Against it:
- C=CCOc1ccc(NS(=O)(=O)c2ccc(C)cc2)c(NS(=O)(=O)c2ccc(C)cc2)c1 [Compound 12cc, N-[4-allyloxy-2-(4-toluenesulfonylamino)-phenyl]-4-toluenesulfonamide] — higher, 19%
- Cc1ccc(S(=O)(=O)Nc2ccc(OCCCCCCCCO)cc2NS(=O)(=O)c2ccc(C)cc2)cc1 [Compound 12dd, N-[4-(8-hydroxy-octyloxy)-2-(4-toluenesulfonylamino)-phenyl]-4-toluenesulfonamide] — higher, 36%
- COc1ccc(CCNC(=O)c2ccc(NS(=O)(=O)c3ccc(C)cc3)c(NS(=O)(=O)c3ccc(C)cc3)c2)cc1 [Compound 22b, N-[2-(4-methoxy-phenyl)-ethyl]-3,4-bis-(4-toluenesulfonylamino)-benzamide] — higher, 25%
- Cc1ccc(S(=O)(=O)Nc2ccc(C(=O)Nc3cccnc3)cc2NS(=O)(=O)c2ccc(C)cc2)cc1 [Compound 22d, N-pyridin-3-yl-3,4-bis-(4-toluenesulfonylamino)-benzamide] — lower, 0%
- Cc1ccc(S(=O)(=O)Nc2ccc(C(=O)NCC(C)(C)CO)cc2NS(=O)(=O)c2ccc(C)cc2)cc1 [Compound 22f, N-(3-hydroxy-2,2-dimethyl-propyl)-3,4-bis-(4-toluenesulfonylamino)-benzamide] — lower, 3%
- COc1ccc(Oc2ccc(NS(=O)(=O)c3ccc(C)cc3)c(NS(=O)(=O)c3ccc(S(C)(=O)=O)cc3)c2)cc1 [Compound 22ff, 4-methanesulfonyl-N-[5-(4-methoxy-phenoxy)-2-(4-toluenesulfonylamino)-phenyl]-benzenesulfonamide] — lower, 2%
- COc1ccc(Oc2ccc(NS(=O)(=O)c3ccc(C)cc3)c(NS(=O)(=O)c3ccc(C)cc3OC)c2)cc1 [Compound 22hh, 2-methoxy-N-[5-(4-methoxy-phenoxy)-2-(4-toluenesulfonylamino)-phenyl]-4-methyl-benzenesulfonamide] — higher, 17%
- Cc1ccc(S(=O)(=O)Nc2ccc(NS(=O)(=O)c3cccs3)cc2NS(=O)(=O)c2ccc(C)cc2)cc1 [Compound 22i, N-[3,4-bis-(4-toluenesulfonylamino)-phenyl]-thiophene-2-sulfonamide] — higher, 26%

Same assay, conditions: Table 3; compound at 50 μg/mL (starred values); read-out: % Inhibition Src (%), * = assayed at 50 μg/mL

`Cc1ccc(S(=O)(=O)Nc2ccc(OCCCCCO)cc2NS(=O)(=O)c2ccc(C)cc2)cc1` [Compound 12s, N-[4-(5-hydroxy-pentyloxy)-2-(4-toluenesulfonylamino)-phenyl]-4-toluenesulfonamide] gave an inhibition at 50 µg/mL of 9%.
